Like-named read-outs stand apart in the source and are kept apart here.
System: HSV-1
Assay: Plaque reduction assay, HSV-1 clinical isolates on Vero cells
Type: cell-based
Settings: Human alphaherpesvirus 1, Vero
Description: Viral isolates were used to infect a sub-confluent monolayer of Vero cells at a concentration of 75 or 50 plaque forming units (PFU) per well for HSV-1 and HSV-2, respectively. […] CMC medium typically used to create a semisolid interface and prevents indiscrimate viral spreading. Other materials (e.g. agar) may also be used to create this interface.
Cells were fixed with 10% formalin and stained with crystal violet before enumeration of the plaques (microscopic observation or use of fluorescent antibodies for detection is also suitable). The data obtained from these experiments were then expressed as percent inhibition of viral infectivity relative to the no drug control.
Definitions of phenotypic drug susceptibility classification as sensitive or resistant were as follows: ACV, <3 μM or >40 μM; PCV, <10 μM or >40 μM; CDV, <24 μM or >30 μM; FOS, <250 μM or >400 μM; and ACV, <6.5 μM or >40 μM; PCV, <38 μM or >40 μM; FOS, <250 μM or >400 μM for HSV-1 and HSV-2, respectively. Any IC50 values falling in between these sensitive and resistant cut-offs were reported as intermediate resistance.
The phenotype (i.e. reactivity to a drug) of the virus was characterised by the plaque reduction assay as described above.

**Q.** Which results are given for `O=C(O)P(=O)(O)O` [Foscarnet, foscarnet]?
**A.** IC50 (isolate HPG033, HSV-1 TK I358L (1072A>C), also TK T287M, read-out: Drug susceptibility (IC50 value)): 88.3 µM; IC50 (isolate HPG033, HSV-1 TK I358L (1072A>C), also TK T287M, read-out: Drug susceptibility Foscarnet (FOS)): < 250 µM; IC50 (isolate HPG033, HSV-1 pol N1046T (3137A>C), also TK T287M, pol A1169T, read-out: Drug susceptibility (IC50 value)): 88.3 µM; IC50 (isolate HPG033, HSV-1 pol N1046T (3137A>C), also TK T287M, pol A1169T, read-out: Drug susceptibility Foscarnet (FOS)): < 250 µM; IC50 (isolate HPG035, HSV-1 pol S239L (716C>T), also pol S724N, read-out: Drug susceptibility (IC50 value)): 701 µM; IC50 (isolate HPG035, HSV-1 pol S239L (716C>T), also pol S724N, read-out: Drug susceptibility Foscarnet (FOS)): > 400 µM; IC50 (isolate HPG037, HSV-1 TK L69M (205>A), also TK Y239H, read-out: Drug susceptibility Foscarnet (FOS)): < 250 µM; IC50 (isolate HPG037, HSV-1 TK R256W (766C>T), read-out: Drug susceptibility (IC50 value)): 80 µM; IC50 (isolate HPG037, HSV-1 TK R256W (766C>T), read-out: Drug susceptibility Foscarnet (FOS)): < 250 µM; IC50 (isolate HPG037, HSV-1 TK Y239H (715T>C), read-out: Drug susceptibility (IC50 value)): 80 µM; IC50 (isolate HPG037, HSV-1 TK Y239H (715T>C), read-out: Drug susceptibility Foscarnet (FOS)): < 250 µM; IC50 (isolate HPG039, HSV-1 TK 85* or H58fs (169delC, 170delC, 171delC, or 172delC), read-out: Drug susceptibility (IC50 value)): 59.8 µM; IC50 (isolate HPG039, HSV-1 TK 85* or H58fs (169delC, 170delC, 171delC, or 172delC), read-out: Drug susceptibility Foscarnet (FOS)): < 250 µM; IC50 (isolate HPG040, HSV-1 pol S911N (2732G>A), also TK deletion (C) nt 896-900, pol A1169T, read-out: Drug susceptibility (IC50 value)): 137 µM; IC50 (isolate HPG040, HSV-1 pol S911N (2732G>A), also TK deletion (C) nt 896-900, pol A1169T, read-out: Drug susceptibility Foscarnet (FOS)): < 250 µM; IC50 (isolate HPG041, HSV-1 pol S911N (2732G>A), also pol A1169T, read-out: Drug susceptibility (IC50 value)): 89.5 µM; IC50 (isolate HPG041, HSV-1 pol S911N (2732G>A), also pol A1169T, read-out: Drug susceptibility Foscarnet (FOS)): < 250 µM; IC50 (isolate HPG042, HSV-1 pol A972V (2915C>T), also TK deletion (C) nt 881-885, pol A1169T, read-out: Drug susceptibility (IC50 value)): 60.7 µM; IC50 (isolate HPG042, HSV-1 pol A972V (2915C>T), also TK deletion (C) nt 881-885, pol A1169T, read-out: Drug susceptibility Foscarnet (FOS)): < 250 µM; IC50 (isolate HPG042, HSV-1 pol G22R (64G>A), also TK deletion (C) nt 881-885, pol A1169T, read-out: Drug susceptibility (IC50 value)): 60.7 µM; IC50 (isolate HPG042, HSV-1 pol G22R (64G>A), also TK deletion (C) nt 881-885, pol A1169T, read-out: Drug susceptibility Foscarnet (FOS)): < 250 µM; IC50 (isolate HPG043, HSV-1 TK 183* (437_438insA), read-out: Drug susceptibility (IC50 value)): 69 µM; IC50 (isolate HPG043, HSV-1 TK 183* (437_438insA), read-out: Drug susceptibility Foscarnet (FOS)): < 250 µM; IC50 (isolate HPG045, HSV-1 TK L49R (146T>G), read-out: Drug susceptibility (IC50 value)): 75 µM; IC50 (isolate HPG045, HSV-1 TK L49R (146T>G), read-out: Drug susceptibility Foscarnet (FOS)): < 250 µM; IC50 (isolate HPG045, HSV-1 pol L419I (1255C>A), also TK L49R, pol A1169T, read-out: Drug susceptibility (IC50 value)): 75 µM; IC50 (isolate HPG045, HSV-1 pol L419I (1255C>A), also TK L49R, pol A1169T, read-out: Drug susceptibility Foscarnet (FOS)): < 250 µM; IC50 (isolate HPG046, HSV-1 TK I166N (497T>A), read-out: Drug susceptibility (IC50 value)): < 50 µM; IC50 (isolate HPG046, HSV-1 TK I166N (497T>A), read-out: Drug susceptibility Foscarnet (FOS)): < 250 µM; IC50 (isolate HPG047, HSV-1 pol E680 (2039A>C), also TK deletion (C) nt 548-553, pol A1169T, read-out: Drug susceptibility Foscarnet (FOS)): < 250 µM; IC50 (isolate HPG050, HSV-1 TK Q34* (100C>T), read-out: Drug susceptibility (IC50 value)): 169 µM; IC50 (isolate HPG050, HSV-1 TK Q34* (100C>T), read-out: Drug susceptibility Foscarnet (FOS)): < 250 µM; IC50 (isolate HPG051, HSV-1 pol D83A (248A>C), also TK R176stop, read-out: Drug susceptibility (IC50 value)): 82.6 µM; IC50 (isolate HPG051, HSV-1 pol D83A (248A>C), also TK R176stop, read-out: Drug susceptibility Foscarnet (FOS)): < 250 µM; IC50 (isolate HPG052, HSV-1 TK Q34* (100C>T), read-out: Drug susceptibility (IC50 value)): 76.9 µM; IC50 (isolate HPG052, HSV-1 TK Q34* (100C>T), read-out: Drug susceptibility Foscarnet (FOS)): < 250 µM; IC50 (isolate HPG053, HSV-1 pol L802R + A834S (2405T>G, 2500G>T), also TK R176W, read-out: Drug susceptibility Foscarnet (FOS)): > 400 µM; IC50 (isolate HPG053, HSV-1 pol S911N (2732G>A), also TK R176W, pol A1169T, read-out: Drug susceptibility (IC50 value)): 626 µM; IC50 (isolate HPG053, HSV-1 pol S911N (2732G>A), also TK R176W, pol A1169T, read-out: Drug susceptibility Foscarnet (FOS)): > 400 µM; IC50 (isolate HPG054, HSV-1 pol E992K (2974G>A), also TK insert (G) nt 430-436, pol A1169T, read-out: Drug susceptibility (IC50 value)): 52.9 µM; IC50 (isolate HPG054, HSV-1 pol E992K (2974G>A), also TK insert (G) nt 430-436, pol A1169T, read-out: Drug susceptibility Foscarnet (FOS)): < 250 µM; IC50 (isolate HPG055, HSV-1 TK V204G (611T>G), also pol A1169AT, read-out: Drug susceptibility (IC50 value)): < 50 µM; IC50 (isolate HPG055, HSV-1 TK V204G (611T>G), also pol A1169AT, read-out: Drug susceptibility Foscarnet (FOS)): < 250 µM; IC50 (read-out: Drug susceptibility (IC50 value), isolate HPG005, HSV-1 TK A192T (574G>A)): < 50 µM; IC50 (read-out: Drug susceptibility (IC50 value), isolate HPG006, HSV-1 pol G121S (361G>A), also a TK resistance mutation (footnote a)): 115 µM; IC50 (read-out: Drug susceptibility (IC50 value), isolate HPG012, HSV-1 pol G985E (2954G>A), also TK A93V): 92.1 µM; IC50 (read-out: Drug susceptibility (IC50 value), isolate HPG016, HSV-1 pol A1169T (3505G>A)): 154 µM; IC50 (read-out: Drug susceptibility (IC50 value), isolate HPG037, HSV-1 TK L69M (205>A), also TK Y239H): 80 µM; IC50 (read-out: Drug susceptibility (IC50 value), isolate HPG042, HSV-1 TK frameshift (881delC to 885delC)): 60.7 µM; IC50 (read-out: Drug susceptibility (IC50 value), isolate HPG047, HSV-1 pol E680 (2039A>C), also TK deletion (C) nt 548-553, pol A1169T): 92.4 µM; IC50 (read-out: Drug susceptibility Foscarnet (FOS), isolate HPG005, HSV-1 TK A192T (574G>A)): < 250 µM; IC50 (read-out: Drug susceptibility Foscarnet (FOS), isolate HPG006, HSV-1 pol G121S (361G>A), also a TK resistance mutation (footnote a)): < 250 µM; IC50 (read-out: Drug susceptibility Foscarnet (FOS), isolate HPG012, HSV-1 pol G985E (2954G>A), also TK A93V): < 250 µM; IC50 (read-out: Drug susceptibility Foscarnet (FOS), isolate HPG016, HSV-1 pol A1169T (3505G>A)): < 250 µM; IC50 (read-out: Drug susceptibility Foscarnet (FOS), isolate HPG042, HSV-1 TK frameshift (881delC to 885delC)): < 250 µM

Reference: patent US12281363B2, “Methods for detecting antiviral-drug resistant virus” (Secretary of State for Health and Social Care, priority 2018, dated 2025)
